Reference: US6521593B1, “Methods for inhibiting brain tumor growth” (Childrens Hospital Los Angeles, priority 1999, dated 2003)

Key:
[1] = system: M21L αv pos melanoma cells; experiment: Survival of nude mice with αv-positive melanoma cells implanted into the brain; format: in vivo; conditions: 10^6 cells into forebrain of nude mice
Source text: (§1) Mice were sacrificed when becoming cachectic and the presence of tumor was verified by autopsy.

[2] = system: U87 glioblastoma cells; experiment: Tumor cell adhesion to ECM proteins (FIG. 7), U87; format: cell-based, human; conditions: U87 on vitronectin and tenascin, 20 μg/ml, 8-hour incubation
Protocol: (§2) Non tissue culture dishes were incubated 1 hour at 37° C. with vitronectin, tenascin, fibronectin or collagen I (10 μg/ml), then washed with PBS. After the wash, 5×10^5 cells /well were plated and incubated for 16 hours at 37° C. The cultures were then washed and an adhesion buffer containing 20 μg/ml of pentapeptide or control peptide were added and incubated for an additional 2-24 hours. The cultures were then washed twice with adhesion buffer and stained with Crystal violet and the OD 600 determined. The more adherent cells are present, the higher the OD. Data represent adherent cells after 8-hour incubation. U87=glioblastoma and DAOY=medulloblastoma.

[3] = system: DAOY cells; experiment: Vitronectin adhesion, DAOY; format: cell-based, human; conditions: test substance 20 μg/ml
Protocol: (§3) Adhesion: Assay conditions were as previously described (15). Non-tissue culture treated wells incubated overnight at 4° C. with vitronectin (1-10 μg/ml PBS), washed and blocked for 30 min. with heat denatured 1% BSA in PBS, followed by washing with PBS. Control and test cells, pre-incubated at 37° C. with the test substance (20 μg/ml) in adhesion buffer for 30 min. were plated into wells (5×10^4 cells/well) and incubated for 1 hr at 37° C. After gentle washing of the wells with adhesion buffer, adhering cells were fixed and stained with crystal violet, the dye solubilized in methanol and the OD determined at […].
(§4) To determine if αvβ3 and αvβ5 regulate DAOY, U87MG and HBEC adhesion to vitronecin, the cells were plated in vitronectin-coated wells and allowed to adhere in the presence or absence of either blocking antibodies to αvβ3 (LM-609) and αvβ5 (P1-F6) or the cRGD peptide.

[4] = system: U87MG cells; experiment: Heterotopic (subcutaneous) tumor model, U87MG cells in nude mice
[5] = system: primary HBEC; experiment: Apoptosis on vitronectin (Annexin V-FITC FACS), HBEC; format: cell-based, human; conditions: 20 μg/ml, 4 hrs
Protocol: (§5) Apoptosis: Adhesion conditions were as above, except that 12 well plates covered with vitronectin and 5×10^5 cells/well were plated in adhesion buffer. […] Attached cells were trypsinized and combined with the detached cells in the supernatant and then examined for the presence of apoptotic cells using the Apo Alert Annexin V-FITC apoptosis kit (Clontech).
(§6) FIGS. 6a-6d show the integrin profile (a), effect of αv-antagonist on adhesion to (b), migration on (c) and cell viability on vitronectin (d) for brain tumor and brain capillary endothelial cells. Both DAOY and U87MG tumor cells and brain capillary cells express the integrins αvβ3 and αvβ5 (a). […] Cell viability was tested by letting the cells attach to vitronectin for 1 hour, and then exposing them for 4 hours to the control peptide or αv-antagonist (20 μg/ml) (d). Adherent and floating cells were combined and examined by FACS for apoptosis, using FITC labeled anti-annexin V and propidium iodide.
(§7) We have previously shown that pre-incubation of brain tumor or capillary cells with the cRGD peptide, or the combination of anti-αvβ3 and anti-αvβ5 antibodies, prevents cell adhesion to vitronectin. […] Attached cells were combined after trypsinization with floating cells and the number of apoptotic cells was determined by FACS, using anti-annexin V-FITC antibody and propidium iodide (Clontech Apo alert Annexin V-FITC detection apoptosis kit).

[6] = system: DAOY medulloblastoma cells; experiment: Apoptosis of cells grown on ECM (FIG. 8), DAOY; format: cell-based, human; conditions: 20 μg/ml, 24 hours
Protocol: as §2
(§8) Test conditions were as in FIG. 7, except that detached cells and adherent cells were combined after trypsinisation. The cells were then washed, suspended in 50 μl PBS and centrifuged in glass cover slides (cytospin). After fixation with 4% paraformaldehyde, the cells were stained for apoptosis using the Boehringer Apoptosis Kit. Results are expressed in a percentage of apoptotic cells versus total number of cells. Experiment was done after 24 hours of incubation with the peptides.

[7] = system: DAOY human brain tumor cells; experiment: CAM assay: angiogenesis and growth of DAOY tumors on chick chorioallantoic membrane; format: in vivo; conditions: 100 μg into a CAM vein, 6 days
Protocol: (§9) CAM assay: Egg supplier and preparation have been described earlier (23). Tumor cells were plated in 50 μl PBS at 4×10^6 cells/egg for DAOY and 3.5×10^6 cells/egg for U87MG. Cells were grown to tumors for 7 days, then harvested under sterile conditions, trimmed to similar sizes and […] onto the CAM of 10-day-old embryos. […] Tumors were photographed in situ after 7 days of growth, then harvested, weighed and fixed in 4% buffered formalin and embedded in paraffin. After serial sectioning, slides were stained with hematoxilin and eosin.
(§10) To assess the effect of αv antagonism on brain tumor associated angiogenesis, DAOY and U87MG human brain tumor cells were grown on chick chorioallantoic membranes (CAMs). The tumors were allowed to grow for 7 days before they were removed and reimplanted onto fresh CAMs. 24 hours after transfer, 100 μg of either the active cRGD peptide or control peptide (cRAD) was injected into a CAM vein. Tumors were grown for an additional 6 days and then weighed and analyzed for vascularization. […] In contrast to control tumors, which increased 80% in weight, αv-antagonist treated tumors decreased 30% in weight (FIG. 1b).
(§11) FIGS. 1a and 1b show the inhibition of angiogenesis (a) and tumor growth on the CAM (b) by an αv-antagonist. Brain tumors grown on CAMs were harvested and cut to similar sizes and placed on fresh CAMs of 10-day-old chicken eggs. The following day, 100 μg of active αv-inhibitor or control peptide were injected into the chicken veins and grown for another 6 days. […] Tumors placed on the CAM were weighed at the beginning and end of the experiment (b). The weight of the tumors treated with the control peptide increased by 80% for both tumor types (left, n=8), whereas it decreased by about 30% when the active peptide was administered (right, n=8).

[8] = system: DAOY cells; experiment: Apoptosis on vitronectin (Annexin V-FITC FACS), DAOY; format: cell-based, human; conditions: 20 μg/ml, 4 hrs
Protocol: as §5, §6, §7

[9] = system: U87MG human brain tumor cells; experiment: CAM assay: angiogenesis and growth of U87MG tumors on chick chorioallantoic membrane; format: in vivo; conditions: 100 μg into a CAM vein, 6 days
Protocol: as §9, §10, §11

[10] = system: DAOY cells; experiment: Orthotopic brain tumor model, DAOY cells injected intracerebrally in nu/nu mice; conditions: for Tumor size (mm) Brain: nu/nu mice, 100 μg/mouse daily i.p. from day 7, 4 weeks total tumor growth
Protocol: (§14) Tumor cells (10^6/10 μl PBS) were injected intracerebrally at the coordinates mentioned. […] The animals were then sacrificed by CO2 anesthesia, the brains removed and either snap frozen in liquid nitrogen or fixed in buffered formalin, embedded in paraffin and the cut sections stained with Hematoxylin-Eosin.
DAOY and U87MG cells (10^6 cells/mouse) were stereotactically injected into the right frontal cortex of nu/nu mice in order to establish a system that recapitulates the brain microenvironment. […] For each time, point n=5 or 6.
(§15) Additional animals were tested for survival. Survival was measured as the time point in which mice required sacrifice, due to a moribund state. […] N for DAOY and U87MG control is 16 mice each and 32 mice for treated DAOY and 24 for treated U87MG.

[11] = system: DAOY cells; experiment: Vitronectin migration (Boyden chamber), DAOY; format: cell-based, human; conditions: test substance 20 μg/ml, 4 hrs
Protocol: (§12) Migration: Transwell polycarbonate filters (8 μm pore size) were incubated for 30 min. at 37° C. with vitronectin in PBS (1 μg/ml on the upper side and 10 μg on the bottom side), blocked for 30 min. with 1% heat denatured BSA and washed with PBS. Test cells (5×10^5/well) were added in adhesion buffer containing the test substances indicated (20 μg/ml) and incubated for 4 hrs at 37° C. with the lower chamber containing adhesion buffer. Cells in the upper chamber were removed with a cotton swab and cells on the bottom part of the filter were fixed and stained with crystal violet and the number of migrated cells determined by counting.
(§13) To address whether αvβ3 and αvβ5 modulate migration on vitronectin, independent of adhestion, we tested the same cells on vitronectin-coated membranes in Boyden chambers while in the presence of blocking antibodies or cRGD. […] Since LM-609, in the absence of P1-F6, was incapable of blocking adhesion, this anti-migratory effect must be mediated through a distinct pathway which is independent of forces responsible for adhesion.

[12] = system: human brain endothelial cells (HBEC); experiment: Vitronectin migration (Boyden chamber), HBEC; format: cell-based; conditions: test substance 20 μg/ml, 4 hrs
Protocol: as §12, §13

[13] = system: M21L αv neg melanoma cells; experiment: Survival of nude mice with αv-negative melanoma cells implanted into the brain; format: in vivo; conditions: 10^6 cells into forebrain of nude mice
Source text: as §1

[14] = system: DAOY medulloblastoma cells; experiment: Tumor cell adhesion to ECM proteins (FIG. 7), DAOY; format: cell-based, human; conditions: DAOY on vitronectin and tenascin, 20 μg/ml, 8-hour incubation
Protocol: as §2

[15] = system: human brain endothelial cells (HBEC); experiment: Vitronectin adhesion, HBEC; format: cell-based; conditions: test substance 20 μg/ml
Protocol: as §3, §4

[16] = system: U87 glioblastoma cells; experiment: Apoptosis of cells grown on ECM (FIG. 8), U87; format: cell-based, human; conditions: 20 μg/ml, 24 hours
Protocol: as §2, §8

[17] = system: U87MG cells; experiment: Orthotopic brain tumor model, U87MG cells injected intracerebrally in nu/nu mice
Protocol: as §14
DAOY and U87MG cells (10^6 cells/mouse) were stereotactically injected into the right frontal cortex of nu/nu mice in order to establish a system that recapitulates the brain microenvironment.
as §15
Tumors were removed after 2 weeks of treatment, fixed in buffered formalin, embedded in paraffin and 5 μm sections obtained.

[18] = system: brain capillary cells; experiment: Apoptosis of cells grown on ECM (FIG. 8), brain capillary cells; format: cell-based, human; conditions: 20 μg/ml, 24 hours
Protocol: as §2, §8

[19] = system: DAOY cells; experiment: Heterotopic (subcutaneous) tumor model, DAOY cells in nude mice
Protocol: Subcutaneous tumor growth: For subcutaneous tumor growth, the cells (10^6 mouse) were injected s.c. below the right shoulder pad immediately following intracerebral injection.
To further investigate this finding, we simultaneously injected the DAOY and U87MG cells intracranially and subcutaneously before initiating treatment with the peptides as outlined under the orthotopic model.

[20] = system: U87MG cells; experiment: Vitronectin migration (Boyden chamber), U87MG; format: cell-based, human; conditions: test substance 20 μg/ml, 4 hrs
Protocol: as §12, §13

[21] = system: U87MG cells; experiment: Vitronectin adhesion, U87MG; format: cell-based, human; conditions: test substance 20 μg/ml
Protocol: as §3, §4

[22] = system: C6 and 9L rat glioma xenografts; conditions: 1 mg/mouse/day; cited from earlier work
[23] = 100 μg/mouse/day from day 3, listed as active pentapeptide

## CC(C)[C@H]1C(=O)N[C@@H](CCCN=C(N)N)C(=O)NCC(=O)N[C@@H](CC(=O)O)C(=O)N[C@H](Cc2ccccc2)C(=O)N1C [EMD 121974, cyclo(Arg-Gly-Asp-D-Phe-[N-Me]-Val)]
[1]; 100 μg/mouse/day from day 3
  Survival: 36.5 ± 2.9 days
[1]; [23]
  Survival: 36 days
[2]
  adhesion to ECM (adherent cells, OD 600): detached from vitronectin and tenascin
[3]
  adhesion to vitronectin: Significant inhibition
[4]; U87MG injected intracranially and subcutaneously
  time to sacrifice necessitated by progressive growth of subcutaneous tumors: 10 weeks
[4]; U87MG s.c. only, 100 μg/mouse daily i.p. from day 3, after 6 weeks
  inhibition of subcutaneous tumor growth: no inhibition of tumor growth
[4]; U87MG s.c., 100 μg/mouse daily i.p.
  Tumor size (mm) Subcutis: 19 ± 0.77 mm
[5]
  apoptosis after attachment to vitronectin: significant apoptosis
[6]; DAOY grown on collagen I or fibronectin
  cell survival / apoptotic cells: did not alter the survival
[6]; DAOY grown on vitronectin or tenascin
  cell survival / apoptotic cells: increased number of dead cells
[7]
  tumor-associated angiogenesis (stereomicroscope): significant suppression of angiogenesis
[7]; n=8, listed as active peptide
  decrease of tumor weight: about 30%
[7]; n=8, listed as αv-antagonist
  decrease of tumor weight: 30%
[8]
  apoptosis after attachment to vitronectin: significant apoptosis
[9]
  tumor-associated angiogenesis (stereomicroscope): significant suppression of angiogenesis
[9]; n=8, listed as active peptide
  decrease of tumor weight: about 30%
[9]; n=8, listed as αv-antagonist
  decrease of tumor weight: 30%
[10]; 100 μg/mouse daily i.p.
  Mouse weight (gr): 21 ± 0.89 gr
  mean time to the onset of neurologic symptoms: no evidence of neurological symptoms at any time
[10]; 100 μg/mouse daily i.p., baseline 21 g
  mouse weight: 21 g
[10]; i.p. 100 μg/mouse/day from day 7
  survival (time point at which mice required sacrifice, moribund state): ≥ 24 weeks
[10]; listed as active peptide
  Tumor size (mm) Brain: absence or microscopic residual disease
[10]; listed as αv-antagonist
  Tumor size (mm) Brain: no tumor or only scant residual tumor cells
[10]; treated group
  size of residual tumor foci: smaller than 1 mm^3
[11]
  migration on vitronectin: significantly inhibited
[12]
  migration on vitronectin: significantly inhibited
[13]; 100 μg/mouse/day from day 3
  Survival: 15.7 ± 3.8 days
[13]; [23]
  Survival: 15 days
[14]
  adhesion to ECM (adherent cells, OD 600): detached from vitronectin and tenascin
[15]
  adhesion to vitronectin: Significant inhibition
[16]; U87 grown on collagen I or fibronectin
  cell survival / apoptotic cells: did not alter the survival
[16]; U87 grown on vitronectin or tenascin
  cell survival / apoptotic cells: increased number of dead cells
[17]; U87MG, 100 μg/mouse daily i.p.
  Mouse weight (gr): 20 ± 0.71 gr
  mean time to the onset of neurologic symptoms: no evidence of neurological symptoms at any time
[17]; U87MG, 100 μg/mouse daily i.p., baseline 21 g
  mouse weight: 21 g
[17]; U87MG, i.p. 100 μg/mouse/day from day 3
  survival (time point at which mice required sacrifice, moribund state): ≥ 15 weeks
[17]; U87MG, nu/nu mice, 100 μg/mouse daily i.p. from day 3, 4 weeks total tumor growth, listed as αv-antagonist
  Tumor size (mm) Brain: no tumor or only scant residual tumor cells
[17]; U87MG, treated group
  size of residual tumor foci: smaller than 1 mm^3
[17]; U87 brain tumors, 100 μg/mouse/day from day 7, 2 weeks of treatment, p<0.005
  CD31 positive vessels in tumor sections (immunohistochemistry): very few such vessels
[17]; U87 brain tumors, 100 μg/mouse/day from day 7, 2 weeks of treatment, p<0.02
  apoptotic (dead) cells in tumor sections: significantly more dead cells
[18]; brain capillary cells grown on collagen I or fibronectin
  cell survival / apoptotic cells: did not alter the survival
[18]; brain capillary cells grown on vitronectin or tenascin
  cell survival / apoptotic cells: increased number of dead cells
[19]; DAOY injected into brain and subcutis, treatment from day 7, week 4 (FIG. 5)
  average size of subcutaneous tumors: 18 mm^3
[19]; DAOY injected intracranially and subcutaneously
  time to sacrifice necessitated by progressive growth of subcutaneous tumors: 10 weeks
[19]; DAOY s.c. only, 100 μg/mouse daily i.p. from day 7, after 6 weeks
  inhibition of subcutaneous tumor growth: no inhibition of tumor growth
[19]; DAOY s.c., 100 μg/mouse daily i.p.
  Tumor size (mm) Subcutis: 17 ± 0.84 mm
[20]
  migration on vitronectin: significantly inhibited
[21]
  adhesion to vitronectin: Significant inhibition

## Angiostatin
[22]
  growth inhibition of intracranial glioma xenografts: considerable growth inhibition
